Measured values reported in ChEMBL document CHEMBL3425509, “Design, synthesis, and biological evaluation of benzofuran- and 2,3-dihydrobenzofuran-2-carboxylic acid N-(substituted)phenylamide derivatives as anticancer agents and inhibitors of NF-κB” (Bioorg Med Chem Lett, 2015).
pIC50: −log10 of the molar value.

What was measured:
[1] = Cytotoxicity against human NUGC3 cells assessed as growth inhibition after 72 hrs by sulforhodamine B assay; assay type: functional; settings: NUGC-3, 72 h
[2] = test system: MDA-MB-231; experiment: Cytotoxicity against human MDA-MB-231 cells assessed as growth inhibition after 72 hrs by sulforhodamine B assay; assay type: functional; settings: MDA-MB-231, 72 h
[3] = test system: NCI-H23; experiment: Cytotoxicity against human NCI-H23 cells assessed as cell viability at 10 uM after 72 hrs by sulforhodamine B assay relative to control; assay type: functional; settings: NCI-H23, 72 h, read-out: Activity
[4] = test system: ACHN; experiment: Cytotoxicity against human ACHN cells assessed as cell viability at 10 uM after 72 hrs by sulforhodamine B assay relative to control; assay type: functional; settings: read-out: Activity
[5] = test system: NCI-H23; experiment: Cytotoxicity against human NCI-H23 cells assessed as growth inhibition after 72 hrs by sulforhodamine B assay; assay type: functional; settings: NCI-H23, 72 h
[6] = Cytotoxicity against human HCT15 cells assessed as growth inhibition after 72 hrs by sulforhodamine B assay; assay type: functional; settings: HCT-15, 72 h
[7] = Cytotoxicity against human NUGC3 cells assessed as cell viability at 10 uM after 72 hrs by sulforhodamine B assay relative to control; assay type: functional; settings: NUGC-3, 72 h, read-out: Activity
[8] = test system: ACHN; experiment: Cytotoxicity against human ACHN cells assessed as growth inhibition after 72 hrs by sulforhodamine B assay; assay type: functional
[9] = Cytotoxicity against human PC3 cells assessed as growth inhibition after 72 hrs by sulforhodamine B assay; assay type: functional; settings: PC-3, 72 h
[10] = Cytotoxicity against human HCT15 cells assessed as cell viability at 10 uM after 72 hrs by sulforhodamine B assay relative to control; assay type: functional; settings: HCT-15, 72 h, read-out: Activity
[11] = test system: MDA-MB-231; experiment: Cytotoxicity against human MDA-MB-231 cells assessed as cell viability at 10 uM after 72 hrs by sulforhodamine B assay relative to control; assay type: functional; settings: MDA-MB-231, 72 h, read-out: Activity
[12] = target: Nuclear factor NF-kappa-B complex (Homo sapiens) (UniProt Q00653+P19838+Q04206); experiment: Inhibition of NF-kappaB (unknown origin) transcriptional activity in LPS-induced mouse RAW264.7 cells at 30 uM after 1 hr by secreted alkaline phosphatase assay relative to control; assay type: cell-based
[13] = Cytotoxicity against human PC3 cells assessed as cell viability at 10 uM after 72 hrs by sulforhodamine B assay relative to control; assay type: functional; settings: PC-3, 72 h, read-out: Activity
[14] = target: Nuclear factor NF-kappa-B complex (Homo sapiens, UniProt P19838+Q00653+Q04206); experiment: Inhibition of NF-kappaB (unknown origin) transcriptional activity in LPS-induced mouse RAW264.7 cells after 1 hr by secreted alkaline phosphatase assay; assay type: cell-based
Sequence of Nuclear factor NF-kappa-B complex (P19838 1-433 limits assumed): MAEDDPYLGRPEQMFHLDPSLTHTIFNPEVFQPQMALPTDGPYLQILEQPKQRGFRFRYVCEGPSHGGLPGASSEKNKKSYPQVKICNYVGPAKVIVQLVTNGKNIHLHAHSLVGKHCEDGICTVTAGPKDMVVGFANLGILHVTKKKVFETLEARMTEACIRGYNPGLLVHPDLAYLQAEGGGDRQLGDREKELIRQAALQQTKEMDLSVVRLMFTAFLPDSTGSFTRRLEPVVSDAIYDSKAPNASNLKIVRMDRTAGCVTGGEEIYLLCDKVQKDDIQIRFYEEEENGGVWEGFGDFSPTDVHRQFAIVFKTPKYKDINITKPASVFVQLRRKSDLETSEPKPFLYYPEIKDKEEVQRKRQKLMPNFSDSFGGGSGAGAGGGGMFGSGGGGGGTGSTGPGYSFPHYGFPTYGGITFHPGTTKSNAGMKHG
Sequence of Nuclear factor NF-kappa-B complex (Q00653 1-454 limits assumed): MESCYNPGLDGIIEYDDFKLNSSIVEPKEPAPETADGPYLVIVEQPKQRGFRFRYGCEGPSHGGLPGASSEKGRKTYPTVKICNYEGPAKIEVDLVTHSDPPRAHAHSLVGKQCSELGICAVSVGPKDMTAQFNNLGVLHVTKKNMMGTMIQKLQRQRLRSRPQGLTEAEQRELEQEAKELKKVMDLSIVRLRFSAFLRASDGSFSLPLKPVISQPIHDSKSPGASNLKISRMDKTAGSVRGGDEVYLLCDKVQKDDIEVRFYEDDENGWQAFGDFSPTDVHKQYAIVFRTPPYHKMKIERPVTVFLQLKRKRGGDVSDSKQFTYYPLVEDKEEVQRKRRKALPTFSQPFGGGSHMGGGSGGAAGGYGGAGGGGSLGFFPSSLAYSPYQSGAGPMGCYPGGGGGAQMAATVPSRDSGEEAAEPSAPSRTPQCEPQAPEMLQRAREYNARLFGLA
Sequence of Nuclear factor NF-kappa-B complex (Q04206 whole entry): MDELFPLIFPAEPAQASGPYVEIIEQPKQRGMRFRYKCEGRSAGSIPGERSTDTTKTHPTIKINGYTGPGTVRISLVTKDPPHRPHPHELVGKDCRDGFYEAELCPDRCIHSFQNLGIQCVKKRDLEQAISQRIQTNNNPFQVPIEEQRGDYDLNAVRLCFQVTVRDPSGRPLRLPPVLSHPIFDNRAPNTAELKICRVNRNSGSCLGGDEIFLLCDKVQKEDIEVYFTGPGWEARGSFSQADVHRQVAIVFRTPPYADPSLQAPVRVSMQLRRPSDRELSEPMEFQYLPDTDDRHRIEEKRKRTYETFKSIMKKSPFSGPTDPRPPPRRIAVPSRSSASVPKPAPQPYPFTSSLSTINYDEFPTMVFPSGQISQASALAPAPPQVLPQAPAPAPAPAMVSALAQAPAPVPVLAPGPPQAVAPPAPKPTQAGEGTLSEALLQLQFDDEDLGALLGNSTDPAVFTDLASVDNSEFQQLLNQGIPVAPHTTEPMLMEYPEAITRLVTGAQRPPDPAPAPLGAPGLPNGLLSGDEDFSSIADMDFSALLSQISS

Sequence of Nuclear factor NF-kappa-B complex (Homo sapiens) (P19838 whole entry, looked up): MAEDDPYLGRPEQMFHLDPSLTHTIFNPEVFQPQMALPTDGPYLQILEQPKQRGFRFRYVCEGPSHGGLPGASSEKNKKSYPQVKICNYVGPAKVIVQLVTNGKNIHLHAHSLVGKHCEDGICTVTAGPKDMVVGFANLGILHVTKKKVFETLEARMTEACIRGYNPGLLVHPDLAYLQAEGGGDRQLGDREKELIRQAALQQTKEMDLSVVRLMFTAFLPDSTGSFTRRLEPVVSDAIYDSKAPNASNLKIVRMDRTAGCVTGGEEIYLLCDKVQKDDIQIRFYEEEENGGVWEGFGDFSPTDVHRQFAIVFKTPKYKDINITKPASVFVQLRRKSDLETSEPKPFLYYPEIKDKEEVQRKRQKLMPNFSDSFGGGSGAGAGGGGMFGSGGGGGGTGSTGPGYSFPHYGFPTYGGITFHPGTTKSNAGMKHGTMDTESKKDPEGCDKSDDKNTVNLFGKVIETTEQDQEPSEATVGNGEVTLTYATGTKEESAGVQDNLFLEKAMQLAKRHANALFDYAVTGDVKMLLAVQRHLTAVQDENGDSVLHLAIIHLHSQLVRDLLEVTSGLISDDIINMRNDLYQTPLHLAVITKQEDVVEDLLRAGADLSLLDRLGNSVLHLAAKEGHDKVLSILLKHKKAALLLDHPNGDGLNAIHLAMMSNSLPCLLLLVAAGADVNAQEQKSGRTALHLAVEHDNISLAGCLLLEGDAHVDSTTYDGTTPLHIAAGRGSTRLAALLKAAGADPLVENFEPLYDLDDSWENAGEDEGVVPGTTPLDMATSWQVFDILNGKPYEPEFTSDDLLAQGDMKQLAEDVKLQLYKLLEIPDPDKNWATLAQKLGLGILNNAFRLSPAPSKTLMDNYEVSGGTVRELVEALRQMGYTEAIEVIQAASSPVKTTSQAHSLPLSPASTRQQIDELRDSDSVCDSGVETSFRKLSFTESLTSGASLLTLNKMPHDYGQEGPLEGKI
Sequence of Nuclear factor NF-kappa-B complex (Homo sapiens) (Q00653 whole entry, looked up): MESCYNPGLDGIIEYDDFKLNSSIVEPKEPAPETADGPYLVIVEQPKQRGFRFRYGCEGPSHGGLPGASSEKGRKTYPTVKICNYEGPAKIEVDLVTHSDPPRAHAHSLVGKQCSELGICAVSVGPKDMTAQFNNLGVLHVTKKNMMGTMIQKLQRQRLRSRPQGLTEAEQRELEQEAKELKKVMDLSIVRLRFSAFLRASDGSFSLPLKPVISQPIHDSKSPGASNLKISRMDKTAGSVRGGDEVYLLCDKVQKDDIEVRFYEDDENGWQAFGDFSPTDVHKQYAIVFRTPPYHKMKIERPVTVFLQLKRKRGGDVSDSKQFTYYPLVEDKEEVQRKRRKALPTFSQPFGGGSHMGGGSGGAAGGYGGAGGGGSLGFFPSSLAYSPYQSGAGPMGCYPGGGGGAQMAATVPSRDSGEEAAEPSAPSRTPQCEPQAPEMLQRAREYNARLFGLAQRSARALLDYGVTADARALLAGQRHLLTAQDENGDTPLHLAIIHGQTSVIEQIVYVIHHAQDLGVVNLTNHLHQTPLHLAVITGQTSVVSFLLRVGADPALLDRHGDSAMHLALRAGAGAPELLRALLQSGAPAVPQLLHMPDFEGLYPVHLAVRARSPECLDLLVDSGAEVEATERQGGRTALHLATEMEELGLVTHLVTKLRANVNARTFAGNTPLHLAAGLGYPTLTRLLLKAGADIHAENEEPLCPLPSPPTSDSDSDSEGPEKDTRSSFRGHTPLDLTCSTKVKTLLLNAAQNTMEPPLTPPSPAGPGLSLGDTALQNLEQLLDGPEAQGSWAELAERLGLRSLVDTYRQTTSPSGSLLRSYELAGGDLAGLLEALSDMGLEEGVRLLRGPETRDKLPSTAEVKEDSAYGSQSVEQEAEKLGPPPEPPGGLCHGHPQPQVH
Sequence of Nuclear factor NF-kappa-B complex (Homo sapiens) (Q04206 whole entry, looked up): as the sequence (Q04206 whole entry) above

| SMILES | GI50 [1] [nM] | GI50 [2] [nM] | viability at 10 µM [3] [%] | viability at 10 µM [4] [%] | GI50 [5] [nM] | GI50 [6] [nM] | viability at 10 µM [7] [%] | GI50 [8] [nM] | GI50 [9] [nM] | viability at 10 µM [10] [%] | viability at 10 µM [11] [%] | inhibition [12] [%] | viability at 10 µM [13] [%] | pIC50 [14] |
| --- | --- | --- | --- | --- | --- | --- | --- | --- | --- | --- | --- | --- | --- | --- |
| O=C(Nc1ccc(O)cc1)c1cc2ccccc2o1 | 5860 | 2200 | 25 | 10 | 2480 | 2370 | 47 | 2740 | 2680 | 18 | -32 | 62 | -31 |  |
| S=C(S)N1CCCC1 [PYRROLIDINE DITHIOCARBAMATE] | 140 | 160 |  |  | 100 | 130 |  | 230 | 170 |  |  |  |  | 4.46 |
